Holding throughout (type): cell-based
For assay [1], the target named is T1, AhR (Homo sapiens, UniProt P35869).
T1 construct: host or cells: HepG2
T1 sequence (P35869 11-848): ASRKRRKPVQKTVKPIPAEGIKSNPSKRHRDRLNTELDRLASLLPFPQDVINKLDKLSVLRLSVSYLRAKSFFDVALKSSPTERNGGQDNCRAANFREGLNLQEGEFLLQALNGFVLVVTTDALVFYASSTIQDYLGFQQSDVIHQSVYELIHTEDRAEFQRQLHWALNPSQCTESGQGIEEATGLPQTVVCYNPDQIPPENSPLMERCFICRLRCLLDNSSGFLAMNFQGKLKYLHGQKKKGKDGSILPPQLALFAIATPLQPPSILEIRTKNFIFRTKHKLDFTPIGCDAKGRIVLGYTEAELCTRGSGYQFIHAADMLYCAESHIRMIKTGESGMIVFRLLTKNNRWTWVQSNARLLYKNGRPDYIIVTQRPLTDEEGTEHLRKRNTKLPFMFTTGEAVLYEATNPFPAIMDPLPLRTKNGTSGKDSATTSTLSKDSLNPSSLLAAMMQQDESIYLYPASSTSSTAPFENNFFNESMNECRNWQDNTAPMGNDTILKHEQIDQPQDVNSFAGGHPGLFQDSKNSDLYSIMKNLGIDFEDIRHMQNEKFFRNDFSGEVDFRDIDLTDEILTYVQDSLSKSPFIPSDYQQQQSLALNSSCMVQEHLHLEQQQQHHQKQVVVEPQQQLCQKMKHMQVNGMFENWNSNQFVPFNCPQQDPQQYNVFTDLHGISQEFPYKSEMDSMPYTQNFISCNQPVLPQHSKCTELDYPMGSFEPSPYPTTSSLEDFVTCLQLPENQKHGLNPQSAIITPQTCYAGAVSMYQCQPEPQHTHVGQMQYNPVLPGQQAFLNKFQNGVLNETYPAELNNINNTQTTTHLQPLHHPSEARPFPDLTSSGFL
Description: In vitro assay 1: XRE-luciferase reporter assay, antagonism in human cell line (HepG2). The following applies: HepG2 XRE-luciferase, 6 hours, read-out: Assay 1: AhR-Luc Human Antagonism (IC50). In outline:
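HepG2 cells carrying XRE-firefly luciferase (transient or stable) plus constitutive Nano-Luc control, stimulated 6 h with kynurenine (50 or 200 μM) with or without compound. Firefly/Nano-Luc ratio normalized to kynurenine-alone (maximum) and vehicle (minimum); IC50 by four-parameter nonlinear regression.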
In general terms: A reporter such as luciferase makes a cellular process visible.

For assay [2], the target named is T1, AhR. Description: In vitro assay 4: endogenous AhR activity assay (CYP1A1 and CYP1B1 mRNA, qRT-PCR, HepG2 cells). Conditions: TCDD 10 nM with compound 123 nM, 4 hours, mRNA relative to β-actin. Here is the method: In Vitro Assay 4: Endogenous AhR Activity Assay
HepG2 cells were seeded in 12-well plate (3×10^5 cells/well). A day after seeding, the cells were treated with TCDD (10 nM) alone or with compounds (123 nM) for 4 hours. Total RNA was extracted using Trizol (Thermo Fisher Scientific). cDNA synthesis and quantitative RT-PCR (qRT-PCR) assays were performed using PrimeScript™ RT Master Mix (TAKARA) and TB Green™ Premix Ex Taq™ II (TAKARA) in accordance with manufacturer's instruction. For the measurement of endogenous AhR activity, relative mRNA levels of CYP1A1 and CYP1B1 were quantitated relative to β(beta)-actin mRNA by the comparative Ct (ΔΔCt) method. The percent inhibitions were calculated according to: […]

For assay [3], the target named is T1, AhR. In words: In vitro assay 3: XRE-luciferase reporter assay, agonism in human cell line (HepG2). Conditions: HepG2 XRE-Luc, tryptophan free medium, test compound alone, 6 hours. The text has this: In Vitro XRE-Luciferase Reporter Assay (In Vitro Assay 1, 2, 3)
AhR activation leads the induction of target gene expression such as CYP1A1 and CYP1B1 by AhR binding to AhR-responsive DNA elements also known as xenobiotics responsive elements (XRE). The assay for measuring AhR activity herein is the luciferase assay using cell lines transfected with luciferase reporter plasmid containing XREs at the upstream of the reporter gene. Cells transfected with XRE-luciferase reporter (XRE-Luc) plasmid drive luciferase activity reflecting activation and inhibition of AhR in the cells. In addition to transfection with XRE-reporter vector, cells were co-transfected with Nano-luciferase reporter gene construct (Nano-Luc) containing constitutively active promoter as internal control. Kynurenine (an endogenous AhR agonist) was used to stimulate cells to test antagonistic properties of the compounds. The half-maximal inhibitory concentration (IC50) or half-maximal effective concentration (EC50) value was calculated using nonlinear regression (four parameters) with Prism8.0 software (GraphPad).
In Vitro Assay 3: Agonism in Human Cell Line
HepG2 (human hepatoma cell line) cells co-transfected with XRE-Luc and Nano-Luc plasmids were plated in tryptophan free medium containing 1% of dialyzed fetal bovine serum and incubated overnight at 37° C. in a CO2 incubator. After 24 hours, cells were treated for 6 hours with test compounds or not. Firefly luciferase and Nano-luciferase activity was measured using Nano-glo Luciferase kit (Promega) and relative luciferase activity (Firefly/Nano-Luc) was used to calculate EC50 values. As a positive control, cells were incubated with TCDD. (EC50 Values are grouped as A, B, C and D, whereby A: EC50<0.1 μM; B: 0.1<EC50<1.0 μM; C: 1.0<EC50<10 μM; D: EC50>10 μM)

Where [4] appears, read: cells treated with kynurenine 200 μM (no *).
Where [5] appears, read: read-out: CYP1A1 (% Inhibition).
Where [6] appears, read: read-out: CYP1B1 (% Inhibition).
[7] abbreviates: cells treated with kynurenine 50 μM (*).
The mark [8] stands for this setting: read-out: Assay 3: AhR-Luc Human Agonism (EC50).
[9] abbreviates: read-out: Assay 3: AhR-Luc Human Agonism (EC50, nM), class in brackets.

SMILES strings stand for the structures. Where two headings read alike, the source gives them in different places.

Turning to `O=c1c2cc(-c3ccc(C(F)(F)F)cc3)nc(-c3cccnc3)c2ncn1[C@@H]1CCCC[C@@H]1O` [Example 16, 3-((1R,2S)-2-hydroxycyclohexyl)-8-(pyridin-3-yl)-6-(4-(trifluoromethyl)phenyl)pyrido[3,4-d]pyrimidin-4(3H)-one], in assay [1] (setting [4]), the IC50 (usually the concentration at which inhibition is half-maximal) is under 0.01 µM. Also, the inhibition (in general, the change of the read-out against control, counted positive when it falls) at 0.123 µM in assay [2] (setting [5]) was 99.6%; in assay [2] (setting [6]) it was 100%.

With `Cn1cc(-c2nc(-c3ccc(C(F)(F)F)cc3)cc3c(=O)n(C4CCCC(O)C4)cnc23)cn1` (stereo not drawn) [Example 1, 3-(3-hydroxycyclohexyl)-8-(1-methyl-1H-pyrazol-4-yl)-6-(4-(trifluoromethyl)phenyl)pyrido[3,4-d]pyrimidin-4(3H)-one], the IC50 in assay [1] (setting [7]) was under 0.01 µM. Besides, the concentration giving a half-maximal response (EC50) (as a rule, the concentration at which the effect is half-maximal) was over 30000 nM in assay [3] (setting [8]) and over 10000 nM in assay [3] (setting [9]).

Turning to `Cn1cc(-c2nc(-c3ccc(C(F)(F)F)cc3)cc3c(=O)n([C@H]4CC[C@H](O)CC4)cnc23)cn1` [Example 8, 3-((1r,4r)-4-hydroxycyclohexyl)-8-(1-methyl-1H-pyrazol-4-yl)-6-(4-(trifluoromethyl)phenyl)pyrido[3,4-d]pyrimidin-4(3H)-one], the half-maximal inhibitory concentration (IC50) in assay [1] (setting [7]) is under 0.01 µM. In addition, the results for the EC50 in assay [3] (setting [8]) and in assay [3] (setting [9]) were over 30000 nM and over 10000 nM, respectively.

With `Cn1cc(-c2nc(-c3ccc(Cl)cc3)cc3c(=O)n([C@H]4CC[C@H](O)CC4)cnc23)cn1` [Example 10, 6-(4-chlorophenyl)-3-((1r,4r)-4-hydroxycyclohexyl)-8-(1-methyl-1H-pyrazol-4-yl)pyrido[3,4-d]pyrimidin-4(3H)-one], the IC50 in assay [1] (setting [7]) was under 0.01 µM. Besides, the EC50 in assay [3] (setting [8]) is over 30000 nM; in assay [3] (setting [9]), over 10000 nM.

`CS(=O)(=O)CCn1cnc2c(-c3cccnc3)nc(-c3ccc(C(F)(F)F)cc3)cc2c1=O` [Example 76, 3-(2-(methylsulfonyl)ethyl)-8-(pyridin-3-yl)-6-(4-(trifluoromethyl)phenyl)pyrido[3,4-d]pyrimidin-4(3H)-one]: the IC50 in assay [1] (setting [4]) was under 0.01 µM. Further, the figures for the EC50 in assay [3] (setting [8]) and in assay [3] (setting [9]) were over 30000 nM and over 10000 nM, respectively.

As for `CC(CO)n1cnc2c(-c3cnn(C)c3)nc(-c3cnn(C)c3)cc2c1=O` (stereo not drawn) [Example 3, 3-(1-hydroxypropan-2-yl)-6,8-bis(1-methyl-1H-pyrazol-4-yl)pyrido[3,4-d]pyrimidin-4(3H)-one], in assay [1] (setting [7]), the IC50 was over 1 µM. Besides, the EC50 in assay [3] (setting [8]) was over 30000 nM; in assay [3] (setting [9]) it was over 10000 nM.

In the case of `CC(CO)n1cnc2c(-c3cccnc3)nc(-c3ccc(C(F)(F)F)cc3)cc2c1=O` (stereo not drawn) [Example 44, 3-(1-hydroxypropan-2-yl)-8-(pyridin-3-yl)-6-(4-(trifluoromethyl)phenyl)pyrido[3,4-d]pyrimidin-4(3H)-one], in assay [1] (setting [7]), the IC50 was under 0.01 µM. Further, the EC50 in assay [3] (setting [8]) is over 30000 nM; in assay [3] (setting [9]), over 10000 nM.

Turning to `CS(=O)(=O)N1CCC(n2cnc3c(-c4cccnc4)nc(-c4ccc(Cl)cc4)cc3c2=O)CC1` [Example 94, 6-(4-chlorophenyl)-3-(1-(methylsulfonyl)piperidin-4-yl)-8-(pyridin-3-yl)pyrido[3,4-d]pyrimidin-4(3H)-one], the IC50 in assay [1] (setting [4]) is under 0.01 µM. Besides, the half-maximal effective concentration (EC50) is over 30000 nM in assay [3] (setting [8]) and over 10000 nM in assay [3] (setting [9]).

On to `Cn1cc(-c2nc(-c3ccc(C(F)(F)F)cc3)cc3c(=O)n([C@H]4CCCC[C@H]4O)cnc23)cn1` [Example 17, 3-((1S,2R)-2-hydroxycyclohexyl)-8-(1-methyl-1H-pyrazol-4-yl)-6-(4-(trifluoromethyl)phenyl)pyrido[3,4-d]pyrimidin-4(3H)-one], for which the IC50 in assay [1] (setting [4]) is over 1 µM. Moreover, the inhibition at 0.123 µM in assay [2] (setting [5]) stood at 90.7%; in assay [2] (setting [6]) it was 99.1%.

Take `CCC(CO)n1cnc2c(-c3cccc(F)c3)nc(-c3ccc(Cl)cc3)cc2c1=O` (stereo not drawn) [Example 55, 6-(4-chlorophenyl)-8-(3-fluorophenyl)-3-(1-hydroxybutan-2-yl)pyrido[3,4-d]pyrimidin-4(3H)-one]: the IC50 in assay [1] (setting [7]) is under 0.01 µM. Further, in assay [3] (setting [8]), the concentration giving a half-maximal response (EC50) stood at 1370 nM.

As for `O=c1c2cc(-c3ccc(Cl)cc3)nc(-c3cccnc3)c2ncn1C1CCN(S(=O)(=O)C2CC2)CC1` [Example 95, 6-(4-chlorophenyl)-3-(1-(cyclopropylsulfonyl)piperidin-4-yl)-8-(pyridin-3-yl)pyrido[3,4-d]pyrimidin-4(3H)-one], the IC50 in assay [1] (setting [4]) was under 0.01 µM. Further, the half-maximal effective concentration (EC50) was over 30000 nM in assay [3] (setting [8]) and over 10000 nM in assay [3] (setting [9]).

Take `CC(CO)n1cnc2c(-c3cccnc3)nc(-c3ccc(C(F)(F)F)nc3)cc2c1=O` (stereo not drawn) [Example 50, 3-(1-hydroxypropan-2-yl)-8-(pyridin-3-yl)-6-(6-(trifluoromethyl)pyridin-3-yl)pyrido[3,4-d]pyrimidin-4(3H)-one]: the IC50 in assay [1] (setting [7]) was under 0.01 µM. Moreover, the EC50 in assay [3] (setting [8]) came to 2050 nM.

Turning to `CS(=O)(=O)CCn1cnc2c(-c3cccnc3)nc(-c3ccc(Cl)cc3)cc2c1=O` [Example 77, 6-(4-chlorophenyl)-3-(2-(methylsulfonyl)ethyl)-8-(pyridin-3-yl)pyrido[3,4-d]pyrimidin-4(3H)-one], the IC50 in assay [1] (setting [4]) is under 0.01 µM. Besides, the EC50 in assay [3] (setting [8]) is over 30000 nM; in assay [3] (setting [9]), over 10000 nM.

Turning to `CCC(CO)n1cnc2c(-c3cnn(C)c3)nc(-c3ccc(Cl)cc3)cc2c1=O` (stereo not drawn) [Example 52, 6-(4-chlorophenyl)-3-(1-hydroxybutan-2-yl)-8-(1-methyl-1H-pyrazol-4-yl)pyrido[3,4-d]pyrimidin-4(3H)-one], the IC50 in assay [1] (setting [7]) was under 0.01 µM. In assay [3] (setting [8]), the EC50 was found to be 290 nM.

As for `O=c1c2cc(-c3ccc(N4CCOCC4)cc3)nc(-c3cccnc3)c2ncn1CC(O)CO` (stereo not drawn) [Example 82, 3-(2,3-dihydroxypropyl)-6-(4-morpholinophenyl)-8-(pyridin-3-yl)pyrido[3,4-d]pyrimidin-4(3H)-one], the IC50 in assay [1] (setting [4]) was under 0.01 µM. For the same compound, the EC50 in assay [3] (setting [8]) is over 30000 nM; in assay [3] (setting [9]), over 10000 nM.

`CC(CNS(C)(=O)=O)n1cnc2c(-c3cccnc3)nc(-c3ccc(Cl)cc3)cc2c1=O` (stereo not drawn) [Example 89, N-(2-(6-(4-chlorophenyl)-4-oxo-8-(pyridin-3-yl)pyrido[3,4-d]pyrimidin-3(4H)-yl)propyl)methanesulfonamide]: the IC50 in assay [1] (setting [4]) was under 0.01 µM. Further, the EC50 in assay [3] (setting [8]) is over 30000 nM; in assay [3] (setting [9]), over 10000 nM.

These data come from US20230147257A1 (DONG-A ST CO., LTD., priority 2020, published 2023).
